Laboratory results: ChEMBL document CHEMBL1201862, “PubChem BioAssay data set” (2004)
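These data come from cells grown in 96-well plates and exposed to compound for 48 hours at five concentrations. GI50 = concentration required for 50% inhibition of growth.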 Activity calls are given as the source filed them. No stated cut-off is given here; in the data, active = GI50 up to about 1.1 µM and inactive = higher.

What was measured:
Test in all cases: DTP human tumour cell line panel, 48 h
786-0 = tested on: 786-0
A498 = tested on: A498
A549 = tested on: A549
ACHN = tested on: ACHN
CAKI-1 = tested on: CAKI-1
CCRF-CEM = tested on: CCRF-CEM
COLO 205 = tested on: COLO 205
DLD-1 = tested on: DLD-1
DMS-114 = tested on: DMS-114
DMS-273 = tested on: DMS-273
EKVX = tested on: EKVX
HCC 2998 = tested on: HCC 2998
HCT-116 = tested on: HCT-116
HCT-15 = tested on: HCT-15
HL-60 = tested on: HL-60
HOP-92 = tested on: HOP-92
HT-29 = tested on: HT-29
IGROV-1 = tested on: IGROV-1
K562 = tested on: K562
KM-20L2 = tested on: KM-20L2
LOX IMVI = tested on: LOX IMVI
LXFL 529 = tested on: LXFL 529
M14 = tested on: M14
M19-MEL = tested on: M19-MEL
MOLT-4 = tested on: MOLT-4
NCI-H226 = tested on: NCI-H226
NCI-H23 = tested on: NCI-H23
NCI-H460 = tested on: NCI-H460
NCI-H522 = tested on: NCI-H522
OVCAR-4 = tested on: OVCAR-4
OVCAR-5 = tested on: OVCAR-5
RPMI-8226 = tested on: RPMI-8226
RXF 393 = tested on: RXF 393
SF-268 = tested on: SF-268
SF-295 = tested on: SF-295
SF-539 = tested on: SF-539
SK-MEL-28 = tested on: SK-MEL-28
SK-MEL-2 = tested on: SK-MEL-2
SK-MEL-5 = tested on: SK-MEL-5
SK-OV-3 = tested on: SK-OV-3
SN12C = tested on: SN12C
SNB-19 = tested on: SNB-19
SNB-75 = tested on: SNB-75
SNB-78 = tested on: SNB-78
SR = tested on: SR
SW-620 = tested on: SW-620
U-251 = tested on: U-251
UACC-62 = tested on: UACC-62
UO-31 = tested on: UO-31
BT-549 = tested on: BT-549
HOP-18 = tested on: HOP-18
HOP-62 = tested on: HOP-62
Hs-578T = tested on: Hs-578T
KM12 = tested on: KM12
MDA-MB-435 = tested on: MDA-MB-435
MDA-N = tested on: MDA-N
Malme-3M = tested on: Malme-3M
NCI/ADR-RES = tested on: NCI/ADR-RES
OVCAR-8 = tested on: OVCAR-8
PC-3 = tested on: PC-3
TK-10 = tested on: TK-10
OVCAR-3 = tested on: OVCAR-3
UACC-257 = tested on: UACC-257

Measured: GI50

O=C(CC1(O)C(=O)Nc2ccccc21)c1ccc(Cl)c(Cl)c1 (stereo unspecified)
inactive: 786-0 > 100 µM | A498 > 100 µM | A549 > 100 µM | ACHN > 100 µM | CAKI-1 > 100 µM | CCRF-CEM 63.8 µM | COLO 205 > 100 µM | DLD-1 > 100 µM | DMS-114 > 100 µM | DMS-273 > 100 µM | EKVX 69.3 µM | HCC 2998 > 100 µM | HCT-116 > 100 µM | HL-60 22.8 µM | HOP-92 > 100 µM | HT-29 > 100 µM | IGROV-1 > 100 µM | K562 > 100 µM | KM-20L2 > 100 µM | LOX IMVI > 100 µM | LXFL 529 > 100 µM | M14 > 100 µM | M19-MEL 77.4 µM | MOLT-4 > 100 µM | NCI-H226 > 100 µM | NCI-H23 > 100 µM | NCI-H460 > 100 µM | NCI-H522 > 100 µM | OVCAR-4 > 100 µM | OVCAR-5 > 100 µM | RPMI-8226 > 100 µM | RXF 393 > 100 µM | SF-268 > 100 µM | SF-295 > 100 µM | SF-539 > 100 µM | SK-MEL-28 > 100 µM | SK-MEL-2 > 100 µM | SK-MEL-5 > 100 µM | SK-OV-3 > 100 µM | SN12C > 100 µM | SNB-19 > 100 µM | SNB-75 > 100 µM | SNB-78 97.3 µM | SR > 100 µM | SW-620 > 100 µM | U-251 > 100 µM | UACC-62 > 100 µM | UO-31 > 100 µM
> 100 µM: HCT-15

CO[C@H]1C[C@@H]2CC[C@@H](C)[C@@](O)(O2)C(=O)C(=O)N2CCCC[C@H]2C(=O)O[C@H]([C@H](C)C[C@@H]2CC[C@@H](O)[C@H](OC)C2)CC(=O)[C@H](C)C=C(C)[C@@H](O)[C@@H](OC)C(=O)[C@H](C)C[C@H](C)/C=C/C=C/C=C1C
0.117 µM: HCT-15
inactive: BT-549 1.12 µM | COLO 205 8.24 µM | DLD-1 10 µM | DMS-273 11 µM | HCT-116 5.71 µM | HOP-18 11.8 µM | KM-20L2 16 µM | KM12 5.96 µM | M14 7.55 µM | MDA-MB-435 1.28 µM | MDA-N 1.56 µM | NCI-H522 1.34 µM | SF-268 1.77 µM
active: 786-0 0.108 µM | CCRF-CEM < 0.01 µM | DMS-114 0.1 µM | EKVX < 0.0104 µM | HCC 2998 0.167 µM | HOP-62 < 0.0107 µM | HT-29 0.817 µM | Hs-578T 0.0193 µM | IGROV-1 < 0.01 µM | LOX IMVI 0.0175 µM | M19-MEL 0.1 µM | MOLT-4 0.0272 µM | Malme-3M 0.0243 µM | NCI-H23 0.394 µM | NCI/ADR-RES 0.358 µM | OVCAR-4 < 0.01 µM | OVCAR-8 0.0564 µM | PC-3 0.0211 µM | SF-539 < 0.0111 µM | SK-MEL-28 0.251 µM | SK-MEL-5 0.417 µM | SNB-78 0.1 µM | SR < 0.01 µM | TK-10 0.46 µM | UO-31 < 0.01 µM

C/N=C1\CC2c3cc(OC)c(OC)cc3CCN2C2=C1C(=O)CC(C)(C)C2 (stereo unspecified)
inactive: 786-0 > 100 µM | A498 > 100 µM | A549 > 100 µM | ACHN > 100 µM | CAKI-1 > 100 µM | CCRF-CEM > 100 µM | COLO 205 > 100 µM | DLD-1 > 100 µM | DMS-114 > 100 µM | DMS-273 > 100 µM | EKVX > 100 µM | HCC 2998 > 100 µM | HCT-116 > 100 µM | HL-60 > 100 µM | HOP-92 > 100 µM | HT-29 > 100 µM | KM-20L2 > 100 µM | KM12 > 100 µM | LOX IMVI > 100 µM | LXFL 529 > 100 µM | M19-MEL > 100 µM | MOLT-4 > 100 µM | Malme-3M > 100 µM | NCI-H226 > 100 µM | NCI-H23 > 100 µM | NCI-H460 > 100 µM | NCI-H522 > 100 µM | OVCAR-3 > 100 µM | OVCAR-5 > 100 µM | OVCAR-8 > 100 µM | RXF 393 > 100 µM | SF-268 > 100 µM | SF-295 > 100 µM | SF-539 > 100 µM | SK-MEL-28 > 100 µM | SK-MEL-2 > 100 µM | SK-MEL-5 > 100 µM | SN12C > 100 µM | SNB-19 > 100 µM | SNB-75 > 100 µM | SNB-78 > 100 µM | SR > 100 µM | SW-620 > 100 µM | TK-10 > 100 µM | U-251 > 100 µM | UACC-257 > 100 µM | UO-31 > 100 µM
> 10 µM: HCT-15
